In publication PMC6117091, “The C. difficile clnRAB operon initiates adaptations to the host environment in response to LL-37” (PLoS Pathogens, 2018):

Test system: C. difficile clnR and clnA mutants
Assay: Growth in BHIS with LL-37
Details: 2.5 μg/ml LL-37 in BHIS, versus parent strain

Compound: CC[C@H](C)[C@H](NC(=O)[C@H](CCCCN)NC(=O)[C@H](CCC(=O)O)NC(=O)[C@H](CCCCN)NC(=O)[C@H](CO)NC(=O)[C@H](CCCCN)NC(=O)[C@H](CCCNC(=N)N)NC(=O)[C@H](Cc1ccccc1)NC(=O)[C@H](Cc1ccccc1)NC(=O)[C@H](CC(=O)O)NC(=O)CNC(=O)[C@H](CC(C)C)NC(=O)[C@@H](N)CC(C)C)C(=O)NCC(=O)N[C@@H](CCCCN)C(=O)N[C@@H](CCC(=O)O)C(=O)N[C@@H](Cc1ccccc1)C(=O)N[C@@H](CCCCN)C(=O)N[C@@H](CCCNC(=N)N)C(=O)N[C@H](C(=O)N[C@H](C(=O)N[C@@H](CCC(N)=O)C(=O)N[C@@H](CCCNC(=N)N)C(=O)N[C@H](C(=O)N[C@@H](CCCCN)C(=O)N[C@@H](CC(=O)O)C(=O)N[C@@H](Cc1ccccc1)C(=O)N[C@@H](CC(C)C)C(=O)N[C@@H](CCCNC(=N)N)C(=O)N[C@@H](CC(N)=O)C(=O)N[C@@H](CC(C)C)C(=O)N[C@H](C(=O)N1CCC[C@H]1C(=O)N[C@@H](CCCNC(=N)N)C(=O)N[C@H](C(=O)N[C@@H](CCC(=O)O)C(=O)N[C@@H](CO)C(=O)O)[C@@H](C)O)C(C)C)[C@@H](C)CC)C(C)C)[C@@H](C)CC [LL-37]
- growth (in words): grew slightly better than the parent strain
